Laboratory results published in patent US10294202B2, “Pyrrolidinones as herbicides” (FMC Corporation, priority 2013, dated 2019).

Tests used:
rice, transplanted = experiment: Test F flood (paddy) test; type: in vivo, Oryza sativa cv. Japonica—M202; details: 21 d, scale 0-100
In short: (§1)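 Visual injury ratings (0 no effect to 100 complete control) were taken 21 d after treatment against untreated controls. Compounds went directly into paddy water held 3 cm above soil, applied at the 2.0–2.5-leaf stage in sterilized Tama silt loam under a 30/27 °C, 16-h greenhouse regime.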

sedge, umbrella = experiment: Test F flood (paddy) test; type: in vivo, Cyperus difformis; details: 21 d, scale 0-100
Description: (§2) Three plastic pots (ca. 16-cm diameter) per rate were partially filled with sterilized Tama silt loam soil comprising a 35:50:15 ratio of sand, silt and clay and 2.6% organic matter. Separate plantings for each of the three pots were as follows. Seeds from the U.S. of monochoria (Monochoria vaginalis), sedge, umbrella (small-flower umbrella sedge, Cyperus difformis), bulrush, […] bulrush, Scirpus juncoides), and […] (purple […] coccinea), were planted into one 16-cm pot for each rate. Seeds from the U.S. of flatsedge, rice (rice flatsedge, Cyperus iria), sprangletop, Brdd. (bearded sprangletop, Leptochloa fascicularis), one stand of 9 or 10 water seeded rice seedlings (Rice, W.S. Jap, Oryza sativa cv. 'Japonica-[…]' or Rice, W.S. Ind, 'Indica'), and two stands of 3 or 4 seedlings of rice, transplanted (transplanted rice, Oryza sativa cv. 'Japonica-[…]') were planted into one 16-cm pot for each rate. Seeds from the U.S. of barnyardgrass (Echinochloa crus-galli), […] (common […], Alisma plantago-aquatica), and watergrass, late (late watergrass, Echinochloa oryzicola) were planted into one 16-cm pot for each rate. Plantings were sequential so that crop and weed species were at the 2.0 to 2.5-leaf stage at time of treatment. Potted plants were grown in a greenhouse with day/night temperature settings of 30/27° C., and supplemental balanced lighting was provided to maintain a 16-h photoperiod. Test pots were maintained in the greenhouse until test completion. At time of treatment, test pots were flooded to 3 cm above the soil surface, treated by application of test compounds directly to the paddy water, and then maintained at that water depth for the duration of the test. Effects of treatments on rice and weeds were visually evaluated by comparison to untreated controls after 21 d. Plant response ratings, summarized in Table F, are based on a scale of 0 to 100 where 0 is no effect and 100 is complete control. A dash (-) response means no test result.

flatsedge, rice = experiment: Test F flood (paddy) test; type: in vivo, Cyperus iria; details: 21 d, scale 0-100
Description: as §2

barnyardgrass = experiment: Test F flood (paddy) test; type: in vivo, Echinochloa crus-galli; details: 21 d, scale 0-100
In short: as §1

field poppy = experiment: Test D pre-/postemergence herbicide test; type: in vivo, Papaver rhoeas; details: for Plant response rating: Field Poppy, scale 0 to 100; for Plant response rating, Field Poppy: scale 0 to 100 (0 no effect, 100 complete control)
Description: Seeds of plant species selected from bluegrass (annual bluegrass, Poa annua), blackgrass (Alopecurus myosuroides), canarygrass (littleseed canarygrass, Phalaris minor), chickweed (common chickweed, Stellaria media), galium (catchweed bedstraw, Galium aparine), bromegrass, downy (downy bromegrass, Bromus tectorum), field poppy (Papaver rhoeas), field violet (Viola arvensis), foxtail, green (green foxtail, Setaria viridis), deadnettle (henbit deadnettle, Lamium amplexicaule), ryegrass, Italian (Italian ryegrass, Lolium multiflorum), kochia (Kochia scoparia), lambsquarters (Chenopodium album), oilseed rape (Brassica napus), pigweed (Amaranthus retroflexus), chamomile (scentless chamomile, Matricaria inodora), Russian thistle (Salsola kali), speedwell (bird's-eye speedwell, Veronica persica), barley, spring (spring barley, Hordeum vulgare), wheat, spring (spring wheat, Triticum aestivum), buckwheat, wild (wild buckwheat, Polygonum convolvulus), mustard, wild (wild mustard, Sinapis arvensis), oat, wild (wild oat, Avena fatua), radish, wild (wild radish, Raphanus raphanistrum), […]), barley, winter (winter barley, Hordeum vulgare), and wheat, winter (winter wheat, Triticum aestivum) were planted into a silt loam soil and treated preemergence with test chemicals formulated in a non-phytotoxic solvent mixture which included a surfactant. At the same time, these species were planted in pots containing Redi-Earth® planting medium (Scotts Company, 14111 Scottslawn Road, Marysville, Ohio 43041) comprising spaghnum peat moss, vermiculite, wetting agent and starter nutrients and treated with postemergence applications of the test chemicals formulated in the same manner. Plants ranged in height from 2 to 18 cm (1- to 4-leaf stage). Treated plants and controls were maintained in a controlled growth environment for 7 to 21 days after which time all species were compared to controls and visually evaluated. Plant response ratings, summarized in Table D, are based on a scale of 0 to 100 where 0 is no effect and 100 is complete control. A dash (-) response means no test result.

windgrass = experiment: Test C postemergence herbicide test; type: in vivo, Apera spica-venti
Description: At the same time, plants selected from these crop and weed species and also barley (winter barley, Hordeum vulgare), […]), chickweed (common chickweed, Stellaria media), deadnettle (henbit deadnettle, Lamium amplexicaule), and canarygrass (littleseed canarygrass, Phalaris minor) were planted in pots containing Redi-Earth® planting medium (Scotts Company, 14111 Scottslawn Road, Marysville, Ohio 43041) comprising spaghnum peat moss, vermiculite, wetting agent and starter nutrients and treated with postemergence applications of test chemicals formulated in the same manner. Plants ranged in height from 2 to 18 cm (1- to 4-leaf stage) for postemergence treatments. Treated plants and controls were maintained in a greenhouse for 13 to 15 days, after which time all species were compared to controls and visually evaluated. Plant response ratings, summarized in Table C, are based on a scale of 0 to 100 where 0 is no effect and 100 is complete control. A dash (-) response means no test result.

Rice, W.S. Ind = experiment: Test F flood (paddy) test; type: in vivo, Oryza sativa Indica; details: 21 d, scale 0-100
In short: as §1

[1] = 31 g ai/ha, scale 0 (no effect) to 100 (complete control)
[2] = 62 g ai/ha, scale 0 to 100 (0 no effect, 100 complete control)
[3] = 125 g ai/ha, scale 0 to 100 (0 no effect, 100 complete control)
[4] = 250 g ai/ha, scale 0 to 100 (0 no effect, 100 complete control)

O=C1NCCC1C(=O)N(c1ccc(F)c(F)c1)c1ccccc1F (centres unmarked) [Compound 5, N-(3,4-difluorophenyl)-N-(2-fluorophenyl)-2-oxo-3-pyrrolidinecarboxamide]
0: Plant response rating, Rice, Transplanted (rice, transplanted; 125 g ai/ha) | Plant response rating, Rice, Transplanted (rice, transplanted; 250 g ai/ha) | Plant response rating, Rice, Transplanted (rice, transplanted; 500 g ai/ha) | Plant response rating, Rice, Transplanted (rice, transplanted; 1000 g ai/ha) | Plant response rating, Rice, Transplanted (rice, transplanted; 2000 g ai/ha) | Plant response rating, Sedge, Umbrella (sedge, umbrella; 125 g ai/ha) | Plant response rating, Sedge, Umbrella (sedge, umbrella; 250 g ai/ha) | Plant response rating, Sedge, Umbrella (sedge, umbrella; 500 g ai/ha) | Plant response rating, Sedge, Umbrella (sedge, umbrella; 1000 g ai/ha) | Plant response rating, Sedge, Umbrella (sedge, umbrella; 2000 g ai/ha) | Plant response rating, Flatsedge, Rice (flatsedge, rice; 125 g ai/ha) | Plant response rating, Flatsedge, Rice (flatsedge, rice; 250 g ai/ha) | Plant response rating, Flatsedge, Rice (flatsedge, rice; 500 g ai/ha) | Plant response rating, Flatsedge, Rice (flatsedge, rice; 1000 g ai/ha) | Plant response rating, Flatsedge, Rice (flatsedge, rice; 2000 g ai/ha)
75: Plant response rating, Barnyardgrass (barnyardgrass; 500 g ai/ha)
65: Plant response rating, Barnyardgrass (barnyardgrass; 250 g ai/ha)
90: Plant response rating, Barnyardgrass (barnyardgrass; 1000 g ai/ha) | Plant response rating, Barnyardgrass (barnyardgrass; 2000 g ai/ha)
55: Plant response rating, Barnyardgrass (barnyardgrass; 125 g ai/ha)

O=C1NCC(c2ccc(F)c(F)c2)C1C(=O)Nc1cccc(F)c1F (centres unmarked) [Compound 17, N-(2,3-difluorophenyl)-4-(3,4-difluorophenyl)-2-oxo-3-pyrrolidinecarboxamide]
100: Plant response rating, Barnyardgrass (barnyardgrass; 2000 g ai/ha)
20: Plant response rating, Sedge, Umbrella (sedge, umbrella; 2000 g ai/ha) | Plant response rating, Flatsedge, Rice (flatsedge, rice; 125 g ai/ha) | Plant response rating, Flatsedge, Rice (flatsedge, rice; 250 g ai/ha) | Plant response rating, Flatsedge, Rice (flatsedge, rice; 500 g ai/ha)
10: Plant response rating, Rice, Transplanted (rice, transplanted; 125 g ai/ha) | Plant response rating, Rice, Transplanted (rice, transplanted; 250 g ai/ha) | Plant response rating, Rice, Transplanted (rice, transplanted; 500 g ai/ha) | Plant response rating, Rice, Transplanted (rice, transplanted; 1000 g ai/ha) | Plant response rating, Rice, Transplanted (rice, transplanted; 2000 g ai/ha)
40: Plant response rating, Flatsedge, Rice (flatsedge, rice; 2000 g ai/ha)
0: Plant response rating (field poppy; Postemergence, 16 g ai/ha) | Plant response rating (field poppy; Postemergence, 31 g ai/ha) | Plant response rating (field poppy; Postemergence, 62 g ai/ha) | Plant response rating (field poppy; Postemergence, 125 g ai/ha) | Plant response rating (field poppy; Postemergence, 250 g ai/ha) | Plant response rating, Sedge, Umbrella (sedge, umbrella; 125 g ai/ha) | Plant response rating, Sedge, Umbrella (sedge, umbrella; 250 g ai/ha) | Plant response rating, Sedge, Umbrella (sedge, umbrella; 500 g ai/ha) | Plant response rating, Sedge, Umbrella (sedge, umbrella; 1000 g ai/ha) | Plant response rating, Windgrass (windgrass; [1]) | Plant response rating, Windgrass (windgrass; [2]) | Plant response rating, Windgrass (windgrass; [3]) | Plant response rating, Windgrass (windgrass; [4])
90: Plant response rating, Barnyardgrass (barnyardgrass; 125 g ai/ha) | Plant response rating, Barnyardgrass (barnyardgrass; 250 g ai/ha) | Plant response rating, Barnyardgrass (barnyardgrass; 500 g ai/ha)
95: Plant response rating, Barnyardgrass (barnyardgrass; 1000 g ai/ha)
35: Plant response rating, Flatsedge, Rice (flatsedge, rice; 1000 g ai/ha)

CN1CC(c2ccc(F)c(F)c2)C(C(=O)Nc2cccc(F)c2F)C1=O (centres unmarked) [Compound 303]
100: Plant response rating, Barnyardgrass (barnyardgrass; 62 g ai/ha) | Plant response rating, Barnyardgrass (barnyardgrass; 125 g ai/ha) | Plant response rating, Barnyardgrass (barnyardgrass; 250 g ai/ha) | Plant response rating, Barnyardgrass (barnyardgrass; 500 g ai/ha)
30: Plant response rating, Rice, Transplanted (rice, transplanted; 500 g ai/ha)
15: Plant response rating, Rice, Transplanted (rice, transplanted; 250 g ai/ha)
0: Plant response rating, Rice, Transplanted (rice, transplanted; 62 g ai/ha) | Plant response rating, Rice, Transplanted (rice, transplanted; 125 g ai/ha) | Plant response rating, Sedge, Umbrella (sedge, umbrella; 62 g ai/ha) | Plant response rating, Sedge, Umbrella (sedge, umbrella; 125 g ai/ha) | Plant response rating, Sedge, Umbrella (sedge, umbrella; 250 g ai/ha) | Plant response rating, Sedge, Umbrella (sedge, umbrella; 500 g ai/ha) | Plant response rating, Flatsedge, Rice (flatsedge, rice; 62 g ai/ha) | Plant response rating, Flatsedge, Rice (flatsedge, rice; 125 g ai/ha) | Plant response rating, Flatsedge, Rice (flatsedge, rice; 250 g ai/ha) | Plant response rating, Flatsedge, Rice (flatsedge, rice; 500 g ai/ha)
70: Plant response rating, Rice, W.S. Ind (Rice, W.S. Ind; 500 g ai/ha)
40: Plant response rating, Rice, W.S. Ind (Rice, W.S. Ind; 250 g ai/ha)
25: Plant response rating, Rice, W.S. Ind (Rice, W.S. Ind; 125 g ai/ha)

O=C1NCC(c2cc(F)c(F)cc2F)C1C(=O)Nc1cccc(F)c1F (centres unmarked) [Compound 50]
65: Plant response rating (field poppy; Preemergence, 125 g ai/ha)
0: Plant response rating (field poppy; Postemergence, 16 g ai/ha) | Plant response rating (field poppy; Postemergence, 31 g ai/ha) | Plant response rating (field poppy; Postemergence, 62 g ai/ha) | Plant response rating (field poppy; Postemergence, 125 g ai/ha) | Plant response rating, Field Poppy (field poppy; Preemergence, 62 g ai/ha) | Plant response rating, Field Poppy (field poppy; Preemergence, 16 g ai/ha) | Plant response rating, Windgrass (windgrass; [1]) | Plant response rating, Windgrass (windgrass; [2]) | Plant response rating, Windgrass (windgrass; [3]) | Plant response rating, Windgrass (windgrass; [4])
50: Plant response rating, Field Poppy (field poppy; Preemergence, 31 g ai/ha)
